Experiments:
PC12 cells [1] = assay: Autophagy flow assay (CYTO-ID) in PC12 cells; type: cell-based
Method: The experiment was carried out according to the instructions of the CYTO-ID autophagy detection kit (Enzo Biochem, New York, NY, USA). In brief, we seeded 7.5 × 10^4 PC12 cells in each well of a 24-well plate using the cell slide method. The cells were incubated for 24 h at 37 °C in a 5% CO2 incubator. The experiment was divided into control (0.5% DMSO), positive control rapamycin (Rap 500 nM + chloroquine (CQ)), GENI treated-group (10 μM GENI + 10 μM CQ), 3-MA inhibitor group (5 mM 3-MA + 10 μM CQ) and GENI + 3MA group (5 mM 3-MA + 10 μM GENI + 10 μM CQ). The optimum concentration of 3MA inhibitor was referenced in the other report. At first, 0.5 mL of serum-free DMEM (plus 1% dual anti-penicillin–streptomycin) containing 3-MA (5 mM) was used to replace the medium in two groups as well as 0.5 mL of serum-free DMEM was added in the other groups, respectively. After treating for 6 h, 0.5 mL of DMEM containing DMSO (0.5%), Rap (500 nM) + CQ (10 μM), GENI (10 μM) + CQ (10 μM), CQ (10 μM), and GENI (10 μM) + CQ (10 μM) was added into the corresponding group, respectively. After 18 h, we removed the medium and washed cells twice with 1× assay buffer containing 5% FBS. We then added CYTO-ID Green detection reagent and Hocchst 33342 nuclear stain to the cells, which were incubated at 37 °C for 45 min. After three washes with 1× assay buffer, we fixed cells with 4% paraformaldehyde for 20 min. After three washes with 1× assay buffer, we observed the cells with an upright two-photon confocal microscope (Olympus FV1000BX-51, Tokyo, Japan).

natural aging AD mice = assay: Immunohistochemistry and Western blot of brain in naturally aged AD mice; type: in vivo; settings: GENI 25 mg/kg, compared with aged group
Method: Each group had 10 mice. GENI was dissolved in ultrapure water and administered by gavage, whereas Dor was dissolved in normal saline. The pH was adjusted to pH 5 with 0.1 M hydrochloric acid to the clarified solution and administered by intraperitoneal injection. The dosing experiment also lasted 10 weeks. Animal behavioral experiments and sampling at the end of the animal experiment were performed as described above.
Firstly, the three mice of each group were subjected to heart perfusion at the end of the animal experiment, and the whole brain was removed and placed in 15 mL of 4% paraformaldehyde and stored at 4 °C for 24 h. Secondly, we changed 4% paraformaldehyde into 15% sucrose solution and stored the solution at 4 °C for 24 h. We then changed the solution to 30% sucrose solution to dehydrate for 2 days. Thirdly, the mouse brain tissue was embedded in a cryo-embedding medium, and about 80 slices with a thickness of 20 μm were cut in the hippocampus using a cryostat (Thermal Fisher, Shanghai, China). The sections of mice in each group were immunohistochemically stained with primary antibodies, such as neuronal nuclear anti gen (NeuN), ionized calcium-binding adapter molecule 1 (Iba-1), inducible nitric oxide synthase (iNOS, pro-inflammatory factors), synaptophysin (Syp), and glial fibrillary acidic protein (GFAP), and secondary antibody. The product number and usage ratios of primary and secondary antibodies are detailed in Supplementary Table S4. Finally, the sections were observed under an upright two-photon confocal microscope (Olympus BX61, Tokyo, Japan) and recorded by a camera. The pictures were digitized with ImageJ software V1.8.0.112 (National Institutes of Health, Bethesda, MD, USA).
Western blot analysis for p-AMPK α, AMPK α, p-mTOR, mTOR, p-ULK1, ULK1, and LC3-I/II was conducted according to the information described in the materials and methods section of Supplementary Information.
1.3. Western blot analysis. […]
The supernatants of each group were used as protein samples. For animal samples, an appropriate amount of tissue, such as cerebral cortex and hippocampus (50–100 mg), of each group was weighed, and we added lysis buffer with 1:9 ratios. After grinding and centrifuging, the supernatants of each group were used as protein samples. The protein concentration was measured with a BCA assay kit (Beijing Cowin Biotech Company, Beijing, China). Sodium dodecyl sulphate polyacrylamide gel electrophoresis (SDS-PAGE) was used to separate proteins (15 μg), which were transferred to PVDF membranes. The membrane was incubated with primary and secondary antibodies (Supplementary Table S5 for details). Antigens were visualised using a high-sensitivity chemiluminescence detection kit (Beijing Cowin Biotech Company, Beijing, China). Bands were quantitatively measured using ImageJ software (National Institutes of Health, Bethesda, MD, USA).

PC12 cells [2] = assay: Total SOD enzymatic activity assay in PC12 cells; type: cell-based; settings: compared with the H2O2-treated group
Method: To determine ROS levels in PC12 cells, we seeded 5 × 10^4 PC12 cells in each well of a 24-well plate. Cells were treated with RES (10 μM) or GENI (1, 3, and 10 μM) for 24 h, followed by 0.8 mM H2O2 for 1 h. DCFH-DA (2,7-dichlorodihydrofluorescein diacetate, final concentration, 10 μM) was then added to each well and incubated for 30 min. Cells were washed with PBS to remove extracellular DCFH-DA, and intercellular ROS was detected by using a SpectraMax M3 multimode microplate reader (Molecular Devices Corporation, San Jose, CA, USA) at an excitation wavelength of 488 nm and an emission wavelength of 525 nm. Meanwhile, DCF in PC12 cells was observed using a fluorescence microscope (HCS, Thermo Fisher, Science, Waltham, MA, USA). To detect malondialdehyde (MDA) content and total SOD enzymatic activities in PC12 cells, we seeded 2 × 10^6 PC12 cells in 60 mm dishes containing 5 mL of DMEM and cultured the cells for 24 h. PC12 cells were treated with RES (10 μM) or GENI (3 or 10 μM) for 24 h and then treated with 0.8 mM H2O2 for 1 h to determine the MDA content and total superoxide dismutase (SOD) activities. Cells were lysed and centrifuged. […] MDA quantification and total SOD activities were determined using MDA and SOD enzyme activity assay kits (Nanjing Jiancheng Bioengineering Institute, Nanjing, China) following the manufacturer’s instructions.

CC(C)CCOC(=O)C1=CO[C@@H](O[C@@H]2O[C@H](CO)[C@@H](O)[C@H](O)[C@H]2O)C2C(CO)=CCC12 (stereo partly shown) [GENI, Geniposidic 4-isoamyl ester]
fluorescence intensity of autophagosomes (PC12 cells [1]; 10 μM GENI + 10 μM CQ, compared with the control group): significantly increased
autophagy effect relative to positive control Rap at 500 nM (PC12 cells [1]; GENI at 10 μM): comparable
APP and Tau of hippocampus CA, DG, and cerebral cortex, Aβ and Tau phosphorylation of cerebral cortex (natural aging AD mice): significantly decreased
total SOD activity (PC12 cells [2]): increased

Reference: publication PMC11763059, “GENI as an AMPK Activator Binds α and γ Subunits and Improves the Memory Dysfunction of Alzheimer’s Disease Mouse Models via Autophagy and Neuroprotection” (Antioxidants, 2025)
